Assay results published in patent US10117853B2, “Cyclic amine derivative and pharmaceutical use thereof” (Toray Industries, Inc., priority 2015, dated 2018).
Counter-ions that a name gives are not always drawn.

Columns and labels:
[1] = test system: mouse partial sciatic nerve ligation model; experiment: Mouse partial sciatic nerve ligation model (Seltzer model), von Frey test; assay type: in vivo, Crl: CD1 (ICR) mice; details: oral administration seven days after ligation; 0.01 to 10 mg/kg depending on compound, pregabalin 10 mg/kg; 1, 2, 3 hours after administration; versus partial sciatic nerve ligation+distilled water group
Protocol: Using a partial sciatic nerve ligation model (Seltzer model) in mice by which neuropathic pain can be evaluated, the analgesic action of a cyclic amine derivative (I) or a pharmacologically acceptable salt thereof was investigated.
The mouse partial sciatic nerve ligation model was prepared in accordance with the method of Seltzer et al. (Malmberg et al., Pain, vol. 76, p. 215-222, 1998).
Crl: CD1 (ICR) mice (5 weeks old, male; from CHARLES RIVER LABORATORIES JAPAN, INC.) was anesthetized with sodium pentobarbital (70 mg/kg, intraperitoneal administration). The sciatic nerve at the femoral region of the right hind paw of each mouse was exposed and triply ligated tightly with silk suture of 8-0 (from NATSUME […]., LTD.) under a stereomicroscope so that only half thickness of the nerve was trapped in the ligature. A group of mice thus treated was designated as a partial sciatic nerve ligation group. A group of mice whose sciatic nerve was just exposed and not ligated was designated as a sham surgery group.
Evaluation of neuropathic pain (hereinafter referred to as von Frey test) was performed as follows. Mice were conditioned for at least one hour in an acrylic cage for measurement (from NATSUME […]. LTD.) placed on a wire net. Thereafter, using a filament (from North Coast Medical or neuroscience) which exerted a pressure of 0.16 g, the mice were subjected to mechanical tactile stimulus by applying the filament to the plantar surface of the right hind paw 3 times, each for 3 seconds, with an interval of 3 seconds.
Seven days after the sciatic nerve ligation surgery, the compound of Example 4, 6, 8, 10, 12, 14, 16, 18 or 20 (1 to 10 mg/kg for each of the compounds of Examples 4, 6 and 8, 0.1 to 10 mg/kg for each of the compounds of Examples 16 and 18, 0.01 to 10 mg/kg for each of the compounds of Examples 10, 12 and 14; and 0.1 to 1 mg/kg for the compound of Example 20) or pregabalin as a positive control (10 mg/kg; KEMPROTEC) was dissolved in distilled water and orally administered to mice of the partial sciatic nerve ligation group. The groups of the partial sciatic nerve ligation mice to which the compound of Example 4, 6, 8, 10, 12, 14, 16, 18 or 20 was administered were designated as a “partial sciatic nerve ligation+the compound of Example 4” group; a “partial sciatic nerve ligation+the compound of Example 6” group; a “partial sciatic nerve ligation+the compound of Example 8” group; a “partial sciatic nerve ligation+the compound of Example 10” group; a “partial sciatic nerve ligation+the compound of Example 12” group; a “partial sciatic nerve ligation+the compound of Example 14” group; a “partial sciatic nerve ligation+the compound of Example 16” group; a “partial sciatic nerve ligation+the compound of Example 18” group; and a “partial sciatic nerve ligation+the compound of Example 20” group, respectively. The partial sciatic nerve ligation mouse group to which pregabalin was administered, was designated as a “partial sciatic nerve ligation+pregabalin” group. Also, the partial sciatic nerve ligation mouse group to which distilled water was orally administered, was designated as a “partial sciatic nerve ligation+distilled water” group. The sham surgery mouse group to which distilled water was orally administered was designated as a “sham surgery+distilled water” group.
The von Frey test was carried out before oral administration of a test compound (pre-value), one hour, two hours and three hours after the oral administration of a test compound.
In the figures, the vertical axis represents the total score (mean value±standard error; n=5 to 6 in FIGS. 1 to 9) in the von Frey test. The higher numerical value indicates stronger pain. The horizontal axis represents time (hr) after administration of a test compound. […]

[2] = test system: fibromyalgia syndrome model rats; experiment: Fibromyalgia syndrome model in rats (acidic saline), allodynia by von Frey filament; assay type: in vivo, Crl: CD(SD) rat; details: oral administration; Example 6 10 to 100 mg/kg, Example 18 1 to 100 mg/kg, pregabalin 10 mg/kg; 1 and 3 hours after administration; versus acidic saline+distilled water group
From the text: Using a fibromyalgia syndrome model in rats by which fibromyalgia syndrome can be evaluated, the analgesic action of a cyclic amine derivative (I) or a pharmacologically acceptable salt thereof was investigated.
To prepare a fibromyalgia syndrome model rat (Sluka et al., Journal of Pharmacology and Experimental Therapeutics, vol. 302, p. 1146-1150, 2002; Nagakura et al., Pain, vol. 146, p. 26-33, 2009; Sluka et al., Pain, vol. 146, p. 3-4, 2009), which is generally employed widely in basic research for fibromyalgia syndrome, acidic saline (100 μL) adjusted to pH4.0 was intramuscularly injected to the gastrocnemius muscle of the right hind paw of Crl: CD(SD) rat (6 to 7 weeks old, male; from CHARLES RIVER LABORATORIES JAPAN, INC.) under continuous inhalation anesthesia with isoflurane, twice (once in each day of Day 1 and Day 6, wherein Day 1 was the date on which the acidic saline was initially administrated). The rats thus prepared were raised in a breeding room controlled at an indoor temperature of 21 to 25° C. and an indoor humidity of 40 to 70% under the conditions of voluntary intake of food and water. In the same manner, rats to which physiological saline in place of acidic saline was intramuscularly injected were raised. The rats thus raised and not afflicted with fibromyalgia syndrome (“physiological saline+distilled water” group in FIG. 10 or 11) were also used in the experiment.
Seven days after the initial administration of acidic saline, allodynia in each rat was measured. […]
The compounds of Examples 6 and 18 (10 to 100 mg/kg for the compound of Example 6; 1 to 100 mg/kg for the compound of Example 18) were separately dissolved in distilled water and orally administered to fibromyalgia model rats (“acidic saline+the compound of Example 6” in FIG. 10 and “acidic saline+the compound of Example 18” in FIG. 11). […] In one hour and three hours after the oral administration, allodynia in individual rats was measured to evaluate an analgesic action. […]

Compound | analgesic action, total score in the von Frey test [1] | allodynia, 50% response threshold (mean value of the right hind paw and the left hind paw) [2]
CCCCCCOC(=O)CCn1ccnc1CCC(=O)N1CC[C@H](N(C)C)C1 [Example 4, n-hexyl (S)-3-(2-(3-(3-(dimethylamino)pyrrolidin-1-yl)-3-oxopropyl)-1H-imidazol-1-yl)propanoate hydrochloride] | statistically significant analgesic action | –
CCCCCCCOC(=O)CCn1ccnc1CCC(=O)N1CC[C@H](N(C)C)C1 [Example 6, n-heptyl (S)-3-(2-(3-(3-(dimethylamino)pyrrolidin-1-yl)-3-oxopropyl)-1H-imidazol-1-yl)propanote hydrochloride] | statistically significant analgesic action | statistically significantly improved
CCCCCCCCOC(=O)CCn1ccnc1CCC(=O)N1CC[C@H](N(C)C)C1 [Example 8, n-octyl (S)-3-(2-(3-(3-(dimethylamino)pyrrolidin-1-yl)-3-oxopropyl)-1H-imidazol-1-yl)propanoate hydrochloride] | statistically significant analgesic action | –
CCCOC(=O)Cn1ccnc1CCC(=O)N1CCC(N2CCOCC2)CC1 [Example 10, n-propyl 2-(2-(3-(4-morpholinopiperidin-1-yl)-3-oxopropyl)-1H-imidazol-1-yl)acetate hydrochloride] | statistically significant analgesic action | –
CCCCOC(=O)Cn1ccnc1CCC(=O)N1CCC(N2CCOCC2)CC1 [Example 12, n-butyl 2-(2-(3-(4-morpholinopiperidin-1-yl)-3-oxopropyl)-1H-imidazol-1-yl)acetate hydrochloride] | statistically significant analgesic action | –
CCCCCOC(=O)Cn1ccnc1CCC(=O)N1CCC(N2CCOCC2)CC1 [Example 14, n-pentyl 2-(2-(3-(4-morpholinopiperidin-1-yl)-3-oxopropyl)-1H-imidazol-1-yl)acetate hydrochloride] | statistically significant analgesic action | –
CCCCCCOC(=O)Cn1ccnc1CCC(=O)N1CCC(N2CCOCC2)CC1 [Example 16, n-hexyl 2-(2-(3-(4-morpholinopiperidin-1-yl)-3-oxopropyl)-1H-imidazol-1-yl)acetate hydrochloride] | statistically significant analgesic action | –
CCCCCCCOC(=O)Cn1ccnc1CCC(=O)N1CCC(N2CCOCC2)CC1 [Example 18, n-heptyl 2-(2-(3-(4-morpholinopiperidin-1-yl)-3-oxopropyl)-1H-imidazol-1-yl)acetate hydrochloride] | statistically significant analgesic action | statistically significantly improved
CCCCCCCCOC(=O)Cn1ccnc1CCC(=O)N1CCC(N2CCOCC2)CC1 [Example 20, n-octyl 2-(2-(3-(4-morpholinopiperidin-1-yl)-3-oxopropyl)-1H-imidazol-1-yl)acetate hydrochloride] | statistically significant analgesic action | –
CC(C)C[C@H](CN)CC(=O)O [pregabalin, reference compound] | statistically significant analgesic action | statistically significantly improved
